# Test results taken from patent publication US20090258069A1, “Delivery of LFA-1 antagonists to the gastrointestinal system” (priority 2008, published 2009).
# Where “and” joins values, the source holds several entries; their conditions need not be identical. Equal entries are not always repeated.
# Key:
# [1] = Skin transport studies on microtomed human skin; assay type: in vitro ADME; settings: 1% (w/w) prototypes; [^14C]-Compound 12
# From the text: Prototypes have been developed and tested on microtomed human skin from elective surgery at 1% (w/w). The forms include gels, ointment, or lotion. […] Skin transport studies performed with LC/MS/MS analysis indicate high Compound 12 levels in epidermis and dermis and low levels in the receiver.
# [2] = Phase 1 clinical trial, tear PK; assay type: in vivo, human
# From the text: A 48-hour post-dose sample was obtained following Day 1, 14, and 27.
# rats = experiment: Respiratory function in rats, single IV bolus, head-out plethysmograph; assay type: in vivo, rat; settings: any dose
# dogs (beagles) = experiment: Cardiovascular effects in conscious telemetry-instrumented dogs, IV bolus; assay type: in vivo, dog; settings: IV bolus injection
# [3] = Plasma PK in rats after a single IV bolus dose; assay type: in vivo, rat; settings: for AUC: read-out: AUC0-n
# in vivo [4] = settings: rat, iv
# in vivo [5] = settings: rabbit, topical or ocular
# rabbits = experiment: 13-week ocular toxicity study in rabbits with 4-week recovery (with TK); settings: (3%)
# CD-1 (ICR) BR mice = experiment: In vivo mouse bone marrow micronucleus assay; settings: repeated IV administrations
# [6] = Plasma PK after a single topical ocular instillation (dogs and rabbits)
# [7] = test system: SEB stimulated IL-2 release in whole human blood; experiment: cells; assay type: cell-based; settings: read-out: IC50 inhibition of SEB stimulated IL-2 release in whole human blood
# in vivo [8] = settings: dog, iv
# [9] = Single dose ocular and IV ADME with [^14C]-Compound 12 in rats, quantitative whole body autoradiography; assay type: in vivo, rat; settings: for Compound 12 Concentration, Aqueous humor / Compound 12 Concentration, Conjunctiva (bulbar) / Compound 12 Concentration, Conjunctiva (palpebral) / Compound 12 Concentration, Cornea / Compound 12 Concentration, Iris-ciliary body / Compound 12 Concentration, Lens / Compound 12 Concentration, Optic Nerve / Compound 12 Concentration, Retina and Choroid (with RPE) / Compound 12 Concentration, Sclera / Compound 12 Concentration, Vitreous Humor: ocular dosing in rats; for excretion in feces, of the administered radioactivity: 0 to 168 hours postdose
# Procedure: Quantitative whole body […] assessments were performed.
# Little or no drug is observed in systemic distribution.
# dogs = experiment: Pilot ocular tolerance of topically administered Compound 12 in dogs-PK; assay type: in vivo, dog; settings: up to 10% strength at 3 doses/day
# [10] = as above; assay type: in vivo, dog; settings: dog, vitreous fluid, topical; TID for three days with 3.5 mg/eye (10%); ranged from BLOQ; read-out: levels in the vitreous fluid
# [11] = test system: Keratoconjunctivitis Sicca (KCS); experiment: Canine keratoconjunctivitis sicca (KCS) study, Schirmer tear test and conjunctival biopsy; assay type: in vivo, dog; settings: for Schirmer Tear Test Results (OD), Mean: Dog #1 not included; for Schirmer Tear Test Results (OS), Mean: Dog #7 not included; for Schirmer Tear Test Results (OS), individual dogs: left eye; for Schirmer Tear Test Results (OD), individual dogs: right eye
# From the text: If dogs had been treated with topical CsA or tacrolimus in the previous six months, they were not enrolled. […] Animals were subjected to an ocular examination once during the initial visit and during five visits over sixteen weeks of the study (Weeks, 2, 4, 8, 12 and 16). The last OE was approximately four weeks after the last dose of Compound 12 and after one month of CsA treatment. The adnexa and anterior portions of both eyes were examined using an indirect opthalmoscope. The eyes were dilated with a mydriatic when applicable, to allow evaluation of the lens and fundus, including the retina. An evaluation using a modified McDonald-Shaddock scoring system was performed in conjunction with the slitlamp ocular examinations at each interval. […] One strip of STT paper was used for each eye for each interval. […] The length, in mm, of wetting below the notch of the paper was recorded. Conjunctival biopsies were taken at the initial (pretreatment) visit and the Week 12 visit. The second biopsy was taken more lateral (approx. 1 mm) to the initial biopsy. Following appropriate preparation a small conjunctival biopsy was taken from the ventral fornix of each eye.
# [12] = 30.0 mg/kg single IV bolus, from rat safety pharmacology study
# [13] = rat, 10.0 mg/kg single IV bolus
# [14] = in vivo, topical or ocular, 1.05 mg
# [15] = 0.5 hour postdose, ocular 1 mg/eye
# [16] = 0.5 hour postdose, ocular 1 mg/eye, male Sprague Dawley, above upper limit of quantification
# [17] = 2 hours postdose, ocular 1 mg/eye
# [18] = 8 hours postdose, ocular 1 mg/eye
# [19] = 24 hours postdose, ocular 1 mg/eye
# [20] = Week 1, 1% solution (Formulation 15) 0.35 mg/eye TID, one grid row per dog
# [21] = Week 16, Compound 12 stopped at week 12, then 4 weeks CsA 0.2% ointment TID
# [22] = Weeks 1-12 of Compound 12 administration
compound,measurement,setting,value
CS(=O)(=O)c1cccc(C[C@H](NC(=O)c2c(Cl)cc3c(c2Cl)CCN(C(=O)c2ccc4ccoc4c2)C3)C(=O)O)c1 [Compound 12],Compound 12 in dermis,[1],greater than 10 micromolar
same,dose penetration,[1],2-4%
same,accumulation in tear with multiple ocular dose administration,[2]; BID and TID,no obvious evidence of accumulation
same,tear AUC and Cmax values,"[2]; dosing day 1, maintained throughout the trial",Dose related increases
same,"respiratory function (tidal volume, respiration rate, minute volume)",rats,No adverse changes
same,effects on electrocardiography or hemodynamic parameters,dogs (beagles),No effects
same,Cmax,[3]; [12],5120 ng/mL
same,AUC,[3]; [12],2350 ng·h/mL
same,Cmax,[3]; [13],1060 ng/mL
same,MRT,[3]; [13],0.92 h
same,clearance,[3]; [13],173 mL/min/kg
same,half-life,[3]; [13],3.76 h
same,AUC,[3]; [13],728 ng·h/mL
same,Vd,"[3]; rat, 10.0 mg/kg single IV bolus, read-out: Vss",9.56 L/kg
same,NOAEL at 13 week,in vivo [4],30 mg/kg
same,AUC,in vivo [5]; 0.105 mg,18900 ng·h/mL
same,Cmax,in vivo [5]; 0.105 mg,34000 ng/mL
same,AUC,in vivo [5]; 0.35 mg,18900 ng·h/mL
same,Cmax,in vivo [5]; 0.35 mg,21500 ng/mL
same,NOAEL,rabbits,1.05 mg/eye/3× per day
same,mouse bone marrow micronucleus assay,CD-1 (ICR) BR mice,negative
same,AUC,[6]; [14],22.9 ± 10.1 ng·h/mL
same,Cmax,[6]; [14],38.9 ± 19.7 ng/mL
same,time of decline of plasma concentration to baseline levels,[6]; topical ocular instillation,about 4 hours
same,time of maximum plasma concentration post-dose,[6]; topical ocular instillation,about 0.25 hrs
same,IC50,[7],69 nM
same,NOAEL at 4 week,in vivo [8],10 mg/kg
same,"Compound 12 Concentration, Aqueous humor",[9]; 0.5 hour after administration,1770 ng Equivalents [^14C]-Compound 12/g tissue
same,"Compound 12 Concentration, Conjunctiva (bulbar)",[9]; 0.5 hour after administration,31500 ng Equivalents [^14C]-Compound 12/g tissue
same,"Compound 12 Concentration, Conjunctiva (palpebral)",[9]; 0.5 hour after administration,26300 ng Equivalents [^14C]-Compound 12/g tissue
same,"Compound 12 Concentration, Cornea",[9]; 0.5 hour after administration,17150 ng Equivalents [^14C]-Compound 12/g tissue
same,"Compound 12 Concentration, Iris-ciliary body",[9]; 0.5 hour after administration,17550 ng Equivalents [^14C]-Compound 12/g tissue
same,"Compound 12 Concentration, Lens",[9]; 0.5 hour after administration,38.8 ng Equivalents [^14C]-Compound 12/g tissue
same,"Compound 12 Concentration, Optic Nerve",[9]; 0.5 hour after administration,796 ng Equivalents [^14C]-Compound 12/g tissue
same,"Compound 12 Concentration, Retina and Choroid (with RPE)",[9]; 0.5 hour after administration,510 ng Equivalents [^14C]-Compound 12/g tissue
same,"Compound 12 Concentration, Sclera",[9]; 0.5 hour after administration,2750 ng Equivalents [^14C]-Compound 12/g tissue
same,"Compound 12 Concentration, Vitreous Humor",[9]; 0.5 hour after administration,1330 ng Equivalents [^14C]-Compound 12/g tissue
same,"radioactivity concentration, eye",[9]; [15],18100 ng equivalents [^14C]-Compound 12/g
same,"radioactivity concentration, kidney",[9]; [15],151 ng equivalents [^14C]-Compound 12/g
same,"radioactivity concentration, liver",[9]; [15],272 ng equivalents [^14C]-Compound 12/g
same,"radioactivity concentration, uveal tract",[9]; [15],9330 ng equivalents [^14C]-Compound 12/g
same,"radioactivity concentration, esophageal contents",[9]; [16],399000 ng equivalents [^14C]-Compound 12/g
same,"radioactivity concentration, nasal turbinates",[9]; [16],352000 ng equivalents [^14C]-Compound 12/g
same,"radioactivity concentration, small intestinal contents",[9]; [16],349000 ng equivalents [^14C]-Compound 12/g
same,"decline of radioactivity concentration, esophageal contents",[9]; [17],~100 fold
same,"decline of radioactivity concentration, esophagus",[9]; [17],approximately 50 fold
same,"Compound 12 Concentration, Aqueous humor",[9]; 4.0 hours after administration,116 ng Equivalents [^14C]-Compound 12/g tissue
same,"Compound 12 Concentration, Conjunctiva (bulbar)",[9]; 4.0 hours after administration,4480 ng Equivalents [^14C]-Compound 12/g tissue
same,"Compound 12 Concentration, Conjunctiva (palpebral)",[9]; 4.0 hours after administration,21830 ng Equivalents [^14C]-Compound 12/g tissue
same,"Compound 12 Concentration, Cornea",[9]; 4.0 hours after administration,1346 ng Equivalents [^14C]-Compound 12/g tissue
same,"Compound 12 Concentration, Iris-ciliary body",[9]; 4.0 hours after administration,500 ng Equivalents [^14C]-Compound 12/g tissue
same,"Compound 12 Concentration, Lens",[9]; 4.0 hours after administration,9.69 ng Equivalents [^14C]-Compound 12/g tissue
same,"Compound 12 Concentration, Optic Nerve",[9]; 4.0 hours after administration,0 ng Equivalents [^14C]-Compound 12/g tissue
same,"Compound 12 Concentration, Retina and Choroid (with RPE)",[9]; 4.0 hours after administration,46.7 ng Equivalents [^14C]-Compound 12/g tissue
same,"Compound 12 Concentration, Sclera",[9]; 4.0 hours after administration,387 ng Equivalents [^14C]-Compound 12/g tissue
same,"Compound 12 Concentration, Vitreous Humor",[9]; 4.0 hours after administration,183 ng Equivalents [^14C]-Compound 12/g tissue
same,"radioactivity concentration, cecum contents",[9]; [18],57600 ng equivalents [^14C]-Compound 12/g
same,"radioactivity concentration, large intestinal contents",[9]; [18],133000 ng equivalents [^14C]-Compound 12/g
same,"radioactivity concentration, uveal tract","[9]; 12 hours postdose, ocular 1 mg/eye",610 ng equivalents [^14C]-Compound 12/g
same,"radioactivity concentration, cecum contents",[9]; [19],5870 ng equivalents [^14C]-Compound 12/g
same,"radioactivity concentration, large intestinal contents",[9]; [19],18000 ng equivalents [^14C]-Compound 12/g
same,"excretion in feces, of the administered radioactivity",[9]; IV administration 10 mg/kg,~95%
same,"excretion in feces, of the administered radioactivity",[9]; ocular administration 1 mg/eye,approximately 60%
same,"Urinary excretion, of the administered radioactivity",[9]; ocular or IV,up to 2%
same,binding to melanin,[9]; pigmented vs albino rats,did not preferentially bind to melanin
same,levels in conjunctiva/cornea,"[9]; rat, for 16 hrs",> 100 nM
same,"metabolites in pooled plasma, urine and fecal homogenates","[9]; up to 168 hrs, topical ocular or IV dose",no metabolites were isolated
same,ocular safety and tolerability,dogs,safe and well tolerated
same,concentration at 3 days,[10],≤ 18 ng/mL
same,"Schirmer Tear Test Results (OD), Mean",[11]; Week 1,5.5 mm
same,"Schirmer Tear Test Results (OS), Mean",[11]; Week 1,4.2 mm
same,"Schirmer Tear Test Results (OS), individual dogs",[11]; [20],9 mm (2×) and 18 mm and 0 mm (3×) and 7 mm
same,"Schirmer Tear Test Results (OD), individual dogs",[11]; [20],8 mm (2×) and 6 mm (2×) and 15 mm and 0 mm and 5 mm
same,"Schirmer Tear Test Results (OD), Mean",[11]; Week 2,7.8 mm
same,"Schirmer Tear Test Results (OS), Mean",[11]; Week 2,4.8 mm
same,"Schirmer Tear Test Results (OS), individual dogs","[11]; Week 2, 1% solution TID",4 mm and 0 mm (2×) and 14 mm and 3 mm and 8 mm
same,"Schirmer Tear Test Results (OD), individual dogs","[11]; Week 2, 1% solution TID",10 mm and 2 mm (2×) and 18 mm and 11 mm (3×)
same,"Schirmer Tear Test Results (OD), Mean",[11]; Week 4,7.0 mm
same,"Schirmer Tear Test Results (OS), Mean",[11]; Week 4,6.7 mm
same,"Schirmer Tear Test Results (OS), individual dogs","[11]; Week 4, 1% solution TID",14 mm (2×) and 0 mm (2×) and 7 mm and 5 mm
same,"Schirmer Tear Test Results (OD), individual dogs","[11]; Week 4, 1% solution TID",15 mm and 2 mm and 12 mm and 0 mm and 5 mm and 10 mm (2×)
same,"Schirmer Tear Test Results (OD), Mean",[11]; Week 8,8.5 mm
same,"Schirmer Tear Test Results (OS), Mean",[11]; Week 8,6.5 mm
same,"Schirmer Tear Test Results (OS), individual dogs","[11]; Week 8, 1% solution TID",8 mm (2×) and 19 mm and 0 mm and 2 mm and 17 mm and 6 mm
same,"Schirmer Tear Test Results (OD), individual dogs","[11]; Week 8, 1% solution TID",17 mm and 1 mm and 16 mm and 8 mm and 7 mm (2×) and 11 mm
same,"Schirmer Tear Test Results (OD), Mean",[11]; Week 12,8.8 mm
same,"Schirmer Tear Test Results (OS), Mean",[11]; Week 12,8.7 mm
same,"Schirmer Tear Test Results (OS), individual dogs","[11]; Week 12, 1% solution TID",8 mm (2×) and 18 mm and 3 mm and 7 mm and 15 mm and 4 mm
same,"Schirmer Tear Test Results (OD), individual dogs","[11]; Week 12, 1% solution TID",16 mm and 0 mm and 13 mm (2×) and 8 mm and 7 mm and 9 mm
same,"Schirmer Tear Test Results (OS), Mean",[11]; Week 16 (after 4 weeks CsA),11.0 mm
same,"Schirmer Tear Test Results (OS), individual dogs",[11]; [21],17 mm and 18 mm and 3 mm and 5 mm and 16 mm and 7 mm and 19 mm
same,"Schirmer Tear Test Results (OD), individual dogs",[11]; [21],18 mm and 12 mm (2×) and 8 mm (3×) and 22** mm
same,"Maximum-Minimum Analysis, maximal change in STT, OD, per dog",[11]; [22],3 mm and 8 mm (3×) and −4 mm and 5 mm
same,"Maximum-Minimum Analysis, maximal change in STT, OS, per dog",[11]; [22],7 mm (2×) and 11 mm and 3 mm and 10 mm and 6 mm
same,Histopathological evaluation of conjunctival biopsies before and after treatment,[11]; pretreatment vs Week 12,attenuation of lymphocyte accumulation
same,Schirmer test scores over pretreatment,[11]; week 12,Significant improvement
